Experimental data: patent US20240116985A1, “STAPLED PEPTIDES AND METHODS THEREOF” (priority 2020, published 2024)
Like-named read-outs stand apart in the source and are kept apart here.

Columns and labels:
[1] = target: T1, full-length beta-Catenin (Uniprot ID P35222) (Homo sapiens, UniProt P35222); assay: Fluorescence polarization IC50 (beta-catenin / 5FAM-TCF4 10-53 competition); assay type: binding; details: fluorescence polarization; read-out: beta-Catenin FP IC50
T1 construct: 10 nM full-length beta-Catenin (Uniprot ID P35222)
T1 sequence (P35222 1-781): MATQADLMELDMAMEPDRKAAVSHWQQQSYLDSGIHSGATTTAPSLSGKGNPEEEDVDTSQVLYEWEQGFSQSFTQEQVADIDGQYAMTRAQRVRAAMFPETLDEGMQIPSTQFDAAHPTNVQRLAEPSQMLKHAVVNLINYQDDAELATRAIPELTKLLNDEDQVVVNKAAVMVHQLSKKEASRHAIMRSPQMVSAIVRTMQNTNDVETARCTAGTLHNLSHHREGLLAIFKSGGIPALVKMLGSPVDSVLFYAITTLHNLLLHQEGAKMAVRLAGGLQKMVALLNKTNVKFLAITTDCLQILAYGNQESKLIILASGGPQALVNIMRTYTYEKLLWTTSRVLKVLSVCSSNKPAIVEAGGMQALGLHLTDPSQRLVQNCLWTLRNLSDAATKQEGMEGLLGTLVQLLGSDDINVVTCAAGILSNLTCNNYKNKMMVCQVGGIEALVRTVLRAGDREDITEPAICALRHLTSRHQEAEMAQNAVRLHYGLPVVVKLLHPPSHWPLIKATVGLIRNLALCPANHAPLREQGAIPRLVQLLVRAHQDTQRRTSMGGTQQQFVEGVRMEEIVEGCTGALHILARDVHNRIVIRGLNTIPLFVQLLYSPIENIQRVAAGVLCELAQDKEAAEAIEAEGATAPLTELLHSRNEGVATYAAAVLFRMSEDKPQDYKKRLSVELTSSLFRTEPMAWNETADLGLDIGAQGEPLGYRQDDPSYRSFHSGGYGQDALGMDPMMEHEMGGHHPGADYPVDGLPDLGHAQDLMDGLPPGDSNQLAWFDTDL

[2] = target: T2, beta-catenin/TCF4 engagement (Homo sapiens, UniProt P35222); assay: Nano-BRET target engagement assay (B-cat-Halo & TCF4-Luc in HEK293 cells); assay type: cell-based; details: read-out: NanoBRET Abs IC50
T2 construct: expressed in transfected cells; host or cells: HEK293
T2 sequence (P35222 1-781): T1 sequence (P35222 1-781)

[3] = tested on: TCF/LEF luciferase Reporter in DLD1 cells; assay: TCF reporter assay (DLD1 TCF/LEF luciferase reporter, Bright-Glo); assay type: cell-based
Method in brief: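 DLD1 cells stably carrying a TCF/LEF luciferase reporter were plated at 5000 cells/well in RPMI + 4% FBS and treated overnight with a 1:2 compound dilution series. Bright-Glo luminescence read on day 3; viability by CellTiter-Glo. Absolute IC50 determined.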

[4] = read-out: DLD1 4% Abs IC50, DLD1 reporter, 4%, absolute IC50
[5] = read-out: DLD1 4% Abs IC50, DLD1 reporter assay, 4%, absolute IC50

Structure (SMILES) | IC50 [1] [nM] | IC50 ([2]; absolute IC50) [nM] | IC50 ([3]; absolute IC50, read-out: DLD1 reporter assay Abs IC50) [nM] | IC50 [3, 4] [nM] | IC50 [2] [nM] | IC50 ([3]; read-out: DLD1 4% Abs IC50, DLD1 4%) [nM] | IC50 [3, 5] [nM]
CCNC(=O)[C@H](CCC(N)=O)NC(=O)[C@H](Cc1csc2ccccc12)NC(=O)[C@H](Cc1ccccc1Cl)NC(=O)[C@]12CCN(C1)C(=O)OCCCC=CCCCC1(CCCC=CC[C@]3(CCCN3C(C)=O)C(=O)N[C@@H](CC(=O)O)C(=O)N[C@@H](CC(C)(C)C)C(=O)N1)C(=O)N[C@@H](CC(=O)O)C(=O)N[C@@H](CN(CC(=O)O)CC(F)(F)F)C(=O)N[C@@H](C)C(=O)N[C@@H](C)C(=O)N[C@@H](Cc1ccccc1)C(=O)N[C@@H]([C@@H](C)O)C(=O)N2 (stereo partly drawn) [I-1240, Ac-PL3-Asp-Npg-B5-Asp-TfeGA-Ala-Ala-Phe-Thr-PyrS2-2C1F-BztA-Gln-NHEt] | 33 | 11500 | 4900 |  |  |  | 
CC(=O)N1CCC[C@]12CC=CCCCC1(CCCC=CCCCOC(=O)N3CC[C@@](C(=O)N[C@@H](Cc4ccccc4C(F)(F)F)C(=O)N[C@@H](Cc4csc5ccccc45)C(=O)N[C@@H](CCC(N)=O)C(=O)N[C@@H](C)C(=O)N[C@@H](C)C(N)=O)(C3)NC(=O)[C@H](CC(C)C)NC(=O)[C@H](Cc3ccccc3)NC(=O)[C@H](C)NC(=O)[C@H](C)NC(=O)[C@H](Cc3cccc(C(=O)O)c3)NC(=O)[C@H](CC(=O)O)NC1=O)NC(=O)[C@H](CC(C)(C)C)NC(=O)[C@H](CC(=O)O)NC2=O (stereo partly drawn) [I-2399, Ac-PL3-Asp-Npg-B5-Asp-3COOHF-Ala-Ala-Phe-Leu-PyrS2-2F3MeF-BztA-Gln-Ala-Ala-NH2] | 17 | 2800 |  | 2200 |  |  | 
CC(=O)N1CCC[C@]12CC=CCCCC1(CCCC=CCCCOC(=O)N3CC[C@@](C(=O)N[C@@H](Cc4ccccc4C(F)(F)F)C(=O)N[C@@H](Cc4csc5ccccc45)C(=O)N[C@@H](CCC(N)=O)C(=O)N[C@@H](CC(C)C)C(=O)N[C@H](CCC(N)=O)C(N)=O)(C3)NC(=O)[C@H](CC(C)C)NC(=O)[C@H](Cc3ccccc3)NC(=O)[C@H](C)NC(=O)[C@H](C)NC(=O)[C@H](Cc3cccc(C(=O)O)c3)NC(=O)[C@H](CC(=O)O)NC1=O)NC(=O)[C@H](CC(C)(C)C)NC(=O)[C@H](CC(=O)O)NC2=O (stereo partly drawn) [I-2398, Ac-PL3-Asp-Npg-B5-Asp-3COOHF-Ala-Ala-Phe-Leu-PyrS2-2F3MeF-BztA-Gln-Leu-dGln-NH2] | 28 | 3600 |  | 1300 |  |  | 
CC(=O)N1CCC[C@]12CC=CCCCC1(CCCC=CCCCOC(=O)N3CC[C@@](C(=O)N[C@@H](Cc4ccccc4C(F)(F)F)C(=O)N[C@@H](Cc4csc5ccccc45)C(=O)N[C@@H](CCC(N)=O)C(=O)N[C@@H](CC(C)C)C(=O)N[C@@H](CCC(N)=O)C(N)=O)(C3)NC(=O)[C@H](CC(C)C)NC(=O)[C@H](Cc3ccccc3)NC(=O)[C@H](C)NC(=O)[C@H](C)NC(=O)[C@H](Cc3cccc(C(=O)O)c3)NC(=O)[C@H](CC(=O)O)NC1=O)NC(=O)[C@H](CC(C)(C)C)NC(=O)[C@H](CC(=O)O)NC2=O (stereo partly drawn) [I-2382, Ac-PL3-Asp-Npg-B5-Asp-3COOHF-Ala-Ala-Phe-Leu-PyrS2-2F3MeF-BztA-Gln-Leu-Gln-NH2] | 37 | 4000 |  | 7600 |  |  | 
CC(=O)N1CCC[C@]12CC=CCCCC1(CCCC=CCCCOC(=O)N3CC[C@@](C(=O)N[C@@H](Cc4ccsc4)C(=O)N[C@@H](Cc4csc5ccccc45)C(=O)N[C@@H](CCC(N)=O)C(N)=O)(C3)NC(=O)[C@H](CC(C)C)NC(=O)[C@H](Cc3ccccc3)NC(=O)[C@H](C)NC(=O)[C@H](C)NC(=O)[C@H](CCn3cc(CC(C)(C)C(=O)O)nn3)NC(=O)[C@H](CC(=O)O)NC1=O)NC(=O)[C@H](CC(C)(C)C)NC(=O)[C@H](CC(=O)O)NC2=O (stereo partly drawn) [I-2077, Ac-PL3-Asp-Npg-B5-Asp-[CH2CMe2CO2H]TriAzDab-Ala-Ala-Phe-Leu-PyrS2-3Thi-BztA-Gln-NH2] | 9 |  |  |  | 12300 | 5800 | 
CC(=O)N1CCC[C@]12CC=CCCCC1(CCCC=CCCCOC(=O)N3CC[C@@](C(=O)N[C@@H](Cc4ccsc4)C(=O)N[C@@H](Cc4csc5ccccc45)C(=O)N[C@@H](CO)C(N)=O)(C3)NC(=O)[C@H](CC(C)C)NC(=O)[C@H](Cc3ccccc3)NC(=O)[C@H](C)NC(=O)[C@H](C)NC(=O)[C@H](Cc3ccccc3C(=O)O)NC(=O)[C@H](CC(=O)O)NC1=O)NC(=O)[C@H](CC(C)(C)C)NC(=O)[C@H](CC(=O)O)NC2=O (single isomer, unassigned) [I-1667, Ac-PL3-Asp-Npg-B5-Asp-2COOHF-Ala-Ala-Phe-Leu-PyrS2-3Thi-BztA-Ser-NH2] | 13 | 5600 |  |  |  |  | 1300
CC[C@H](C)[C@H](NC(=O)[C@H](CC(C)C)NC(=O)[C@H](CCC(N)=O)NC(=O)[C@H](Cc1csc2ccccc12)NC(=O)[C@H](Cc1ccccc1C(F)(F)F)NC(=O)[C@]12CCN(C1)C(=O)OCCCC=CCCCC1(CCCC=CC[C@]3(CCCN3C(C)=O)C(=O)N[C@@H](CC(=O)O)C(=O)N[C@@H](CC(C)(C)C)C(=O)N1)C(=O)N[C@@H](CC(=O)O)C(=O)N[C@@H](Cc1cccc(C(=O)O)c1)C(=O)N[C@@H](C)C(=O)N[C@@H](C)C(=O)N[C@@H](Cc1ccccc1)C(=O)N[C@@H](CC(C)C)C(=O)N2)C(N)=O (stereo partly drawn) [I-2385, Ac-PL3-Asp-Npg-B5-Asp-3COOHF-Ala-Ala-Phe-Leu-PyrS2-2F3MeF-BztA-Gln-Leu-Ile-NH2] | 563 | 4000 |  | 1800 |  |  | 
CC(=O)N1CCC[C@]12CC=CCCCC1(CCCC=CCCCOC(=O)N3CC[C@@](C(=O)N[C@@H](Cc4ccccc4C(F)(F)F)C(=O)N[C@@H](Cc4csc5ccccc45)C(=O)N[C@@H](CO)C(N)=O)(C3)NC(=O)[C@H](CC(C)C)NC(=O)[C@H](Cc3ccccc3)NC(=O)[C@H](C)NC(=O)[C@H](C)NC(=O)[C@H](Cn3cc(CC4(C(=O)O)CCCCC4)nn3)NC(=O)[C@H](CC(=O)O)NC1=O)NC(=O)[C@H](CC(C)(C)C)NC(=O)[C@H](CC(=O)O)NC2=O (stereo partly drawn) [I-2521, Ac-PL3-Asp-Npg-B5-Asp-[CH2CChCO2H]TriAzDap-Ala-Ala-Phe-Leu-PyrS2-2F3MeF-BztA-Ser-NH2] | 38 | 5600 |  | 3000 |  |  | 
CC(=O)N1CCC[C@]12CC=CCCCC1(CCCC=CCCCOC(=O)N3CC[C@@](C(=O)N[C@@H](Cc4ccsc4)C(=O)N[C@@H](Cc4csc5ccccc45)C(=O)N[C@H](CO)[C@@H](C)O)(C3)NC(=O)[C@H](CC(C)C)NC(=O)[C@H](Cc3ccccc3)NC(=O)[C@H](C)NC(=O)[C@H](C)NC(=O)[C@H](CC(=O)O)NC(=O)[C@H](CC(=O)O)NC1=O)NC(=O)[C@H](CC(C)(C)C)NC(=O)[C@H](CC(=O)O)NC2=O (stereo partly drawn) [I-1302, Ac-PL3-Asp-Npg-B5-Asp-Asp-Ala-Ala-Phe-Leu-PyrS2-3Thi-BztA-Thro1] | 45 | 21400 |  | 4000 |  |  | 
CCCC[C@@H]1NC(=O)[C@H](Cc2cccc(C(=O)O)c2)NC(=O)[C@H](CC(=O)O)NC(=O)C2(CCCC=CCCCOC(=O)N3CC[C@@](C(=O)N[C@@H](Cc4ccccc4Cl)C(=O)N[C@@H](Cc4csc5ccccc45)C(=O)N[C@@H](CCC(N)=O)C(N)=O)(C3)NC(=O)[C@H](CC(C)C)NC(=O)[C@H](Cc3ccccc3)NC(=O)[C@H](C)NC1=O)CCCC=CC[C@]1(CCCN1C(C)=O)C(=O)N[C@@H](CC(=O)O)C(=O)N[C@@H](CC(C)(C)C)C(=O)N2 (stereo partly drawn) [I-1685, Ac-PL3-Asp-Npg-B5-Asp-3COOHF-nLeu-Ala-Phe-Leu-PyrS2-2C1F-BztA-Gln-NH2] | 23 | 3500 |  |  |  |  | 1300
CC(=O)N1CCC[C@]12CC=CCCCC1(CCCC=CCCCOC(=O)N3CC[C@@](C(=O)N[C@@H](Cc4ccccc4C(F)(F)F)C(=O)N[C@@H](Cc4csc5ccccc45)C(=O)N[C@@H](CCCCNC(C)C)C(N)=O)(C3)NC(=O)[C@H](CC(C)C)NC(=O)[C@H](Cc3ccccc3)NC(=O)[C@H](C)NC(=O)[C@H](C)NC(=O)[C@H](Cc3cccc(C(=O)O)c3)NC(=O)[C@H](CC(=O)O)NC1=O)NC(=O)[C@H](CC(C)(C)C)NC(=O)[C@H](CC(=O)O)NC2=O (stereo partly drawn) [I-1616, Ac-PL3-Asp-Npg-B5-Asp-3COOHF-Ala-Ala-Phe-Leu-PyrS2-2F3MeF-BztA-iPrLys-NH2] | 13 | 4500 |  |  |  |  | 2800
